What was measured:
Assay in all cases: combination Emax (second highest fraction inhibited in the dose matrix, 72 h); higher = more inhibition; extreme values may be limits of the assay
[1] = test system: DEL (T-Cell Non-Hodgkin's Lymphoma)
Procedure, shortened: (§1)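 Cell lines in DMEM/F12 or RPMI with 10% FBS were plated in 1536-well plates, held 24 hours at 37°C, 5% CO2, then given two-drug dose matrices for 72 hours (DMSO typically 0.2%). Viability was read by CellTiter-Glo 2.0 luminescence and scaled as inhibition from 0 (vehicle wells) to 1 (blank wells). Combination Emax is the second-highest inhibition in the matrix; Bliss excess is observed combination effect minus expected EA + EB − EA·EB, EA and EB being single-agent effects.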

[2] = test system: SNU-5 (Gastric Carcinoma)
Procedure, shortened: as §1

ES4 (Ewing's Sarcoma) = test system: ES4 (Ewing's Sarcoma)
Procedure, shortened: as §1

[3] = test system: ME-1 (Acute Myeloid Leukemia)
Procedure, shortened: as §1

[4] = test system: UM-UC-3 (Bladder Carcinoma)
Procedure, shortened: as §1

[5] = test system: TCCSUP (Bladder Carcinoma)
Procedure, shortened: as §1

[6] = test system: RO82-W-1 (Thyroid Gland Carcinoma)
Procedure, shortened: as §1

[7] = test system: TE-15 (Esophageal Squamous Cell Carcinoma)
Procedure, shortened: as §1

[8] = test system: CCRF-CEM (T-Lymphoblastic Leukemia)
Procedure, shortened: as §1

HOS (Osteosarcoma) = test system: HOS (Osteosarcoma)
Procedure, shortened: as §1

[9] = test system: HT-1376 (Bladder Carcinoma)
Procedure, shortened: as §1

[10] = test system: HCC1806 (Breast Carcinoma)
Procedure, shortened: as §1

T98G (Glioblastoma) = test system: T98G (Glioblastoma)
Procedure, shortened: as §1

[11] = test system: B-CPAP (Thyroid Gland Carcinoma)
Procedure, shortened: as §1

[12] = test system: KP-1N (Pancreatic Carcinoma)
Procedure, shortened: as §1

[13] = test system: LS-180 (Colorectal Carcinoma)
Procedure, shortened: as §1

[14] = test system: RC-K8 (B-Cell Non-Hodgkin's Lymphoma)
Procedure, shortened: as §1

[15] = test system: Hs-578-T (Breast Carcinoma)
Procedure, shortened: as §1

[16] = test system: SK-ES-1 (Ewing's Sarcoma)
Procedure, shortened: as §1

[17] = test system: KURAMOCHI (Ovarian Carcinoma)
Procedure, shortened: as §1

Structure (SMILES)	combination Emax [1]	combination Emax [2]	combination Emax (ES4 (Ewing's Sarcoma))	combination Emax [3]	combination Emax [4]	combination Emax [5]	combination Emax [6]	combination Emax [7]	combination Emax [8]	combination Emax (HOS (Osteosarcoma))	combination Emax [9]	combination Emax [10]	combination Emax (T98G (Glioblastoma))	combination Emax [11]	combination Emax [12]	combination Emax [13]	combination Emax [14]	combination Emax [15]	combination Emax [16]	combination Emax [17]
COc1nnc2ccc(N3CCC(c4ccc(OCCN5CCN(C)C(=O)[C@H]5C)cc4)CC3)nn12 [AZD5153] + CC1(C)CCC(CN2CCN(c3ccc(C(=O)NS(=O)(=O)c4ccc(NCC5CCOCC5)c([N+](=O)[O-])c4)c(Oc4cnc5[nH]ccc5c4)c3)CC2)=C(c2ccc(Cl)cc2)C1 [Venetoclax] (first compound max 1 µM, 7x7, partner max 1 µM)	0.809	0.469	0.616	1	0.278	0.252	0.407	0.503	0.562	0.454	0.242	0.645	0.491	0.622	0.481	0.61	0.738	0.761	0.579	0.747
COc1nnc2ccc(N3CCC(c4ccc(OCCN5CCN(C)C(=O)[C@H]5C)cc4)CC3)nn12 [AZD5153] + CCN(CCO)CCCOc1ccc2c(Nc3cc(CC(=O)Nc4cccc(F)c4)[nH]n3)ncnc2c1 [AZD2811] (first compound max 1 µM, 7x7, partner max 1 µM)	0.905	0.506	0.685	0.434	0.459	0.366	0.402	0.486	0.993	0.486	0.256	0.676	0.491	0.645	0.542	0.617	0.728	0.771	0.941	0.738
COc1nnc2ccc(N3CCC(c4ccc(OCCN5CCN(C)C(=O)[C@H]5C)cc4)CC3)nn12 [AZD5153] + C[C@@H]1COCCN1C2=NC(=NC(=C2)C3(CC3)[S@](=N)(=O)C)C4=C5C=CNC5=NC=C4 [AZD6738] (first compound max 1 µM, 7x7, partner max 10 µM)	1	0.913	0.942	0.651	0.621	0.566	0.398	0.889	0.993	0.704	0.481	0.919	0.798	0.72	0.69	0.767	0.896	0.8	0.929	0.826
COc1nnc2ccc(N3CCC(c4ccc(OCCN5CCN(C)C(=O)[C@H]5C)cc4)CC3)nn12 [AZD5153] + Cc1c2c(nn1C)CSCc1cc(n(C)n1)CSc1cc(c3ccccc3c1)OCCCc1c(C(=O)O)n(C)c3c-2c(Cl)ccc13 [AZD5991] (first compound max 1 µM, 7x7, partner max 1 µM)	1	0.561	0.63	0.793	0.281	0.32	0.411	0.627	0.858	0.879	0.264	0.755	0.459	0.706	0.582	0.585	0.832	0.896	0.948	0.927
COc1nnc2ccc(N3CCC(c4ccc(OCCN5CCN(C)C(=O)[C@H]5C)cc4)CC3)nn12 [AZD5153] + Cn1cnc2c(F)c(Nc3ccc(Br)cc3Cl)c(C(=O)NOCCO)cc21 [Selumetinib] (first compound max 1 µM, 7x7, partner max 10 µM)	0.923	0.582	0.658	0.583	0.527	0.337	0.456	0.743	0.638	0.544	0.26	0.687	0.476	0.603	0.563	0.828	0.781	0.736	0.579	0.707
Cc1c2c(nn1C)CSCc1cc(n(C)n1)CSc1cc(c3ccccc3c1)OCCCc1c(C(=O)O)n(C)c3c-2c(Cl)ccc13 [AZD5991] + C=CCn1c(=O)c2cnc(Nc3ccc(N4CCN(C)CC4)cc3)nc2n1-c1cccc(C(C)(C)O)n1 [AZD1775] (first compound max 1 µM, partner max 1 µM)	1	0.565	0.502	0.793	0.271	0.596	0.506	0.548	1	0.432	0.459	0.972	0.674	0.467	0.458	0.47	0.617	0.874	0.985	0.796
